According to EPA's ToxRefDB 2:

Tests used:
mouse [1] = conditions: Sub-acute repeat dose toxicity, b6c3f1, Oral, Water, dose end: 14 day, group: systemic
mouse [2] = conditions: Carcinogenicity, b6c3f1, Oral, Water, dose end: 103 week, group: systemic
rat [3] = conditions: Subchronic oral toxicity in rodents, fischer, Water, dose end: 13 week, group: systemic
rat [4] = conditions: Sub-acute repeat dose toxicity, fischer, Oral, Water, dose end: 14 day, group: systemic
mouse [5] = conditions: Subchronic oral toxicity in rodents, b6c3f1, Water, dose end: 13 week, group: systemic
rat [6] = conditions: Carcinogenicity; fischer; Oral; Water; dose end: 103 week; group: systemic; systemic / pathology microscopic / liver / neoplastic nodule + systemic / pathology microscopic / liver / cellular alteration + systemic / …
rabbit [7] = conditions: Prenatal developmental toxicity study, new zealand white, Oral, Gavage/Intubation, dose end: 18 GD
dog [8] = conditions: Sub-acute repeat dose toxicity; beagle; Oral; Gavage/Intubation; dose end: 4 week; group: systemic; systemic / in life observation / body weight / body weight gain + systemic / in life observation / clinical signs / abnormal feces + …
rat [9] = conditions: Prenatal developmental toxicity study; sprague dawley; Oral; Gavage/Intubation; dose end: 17 GD; group: maternal; systemic / in life observation / body weight / body weight + systemic / in life observation / food consumption / food consumption
rabbit [10] = conditions: Prenatal developmental toxicity study, new zealand white, Oral, Gavage/Intubation, dose end: 18 GD; remark: listed apart in the source
rat [11] = conditions: Chronic toxicity, sprague dawley, Oral, Gavage/Intubation, dose end: 6 month, group: systemic
dog [12] = conditions: Chronic toxicity, beagle, Oral, Gavage/Intubation, dose end: 6 month, group: systemic
mouse [13] = conditions: Subchronic oral toxicity in rodents, cd1, Gavage/Intubation, dose end: 3 month, group: systemic
rat [14] = conditions: Prenatal developmental toxicity study; sprague dawley; Oral; Gavage/Intubation; dose end: 17 GD; group: maternal; systemic / in life observation / body weight / body weight gain
rat [15] = conditions: Sub-acute repeat dose toxicity, sprague dawley, Oral, Gavage/Intubation, dose end: 4 week, group: systemic
rat [16] = conditions: Fertility (Segment I), sprague dawley, Oral, Gavage/Intubation, dose end: 7 GD, group: parental
[17] = systemic / in life observation / body weight / body weight gain + systemic / in life observation / water consumption / water consumption + …
[18] = systemic / pathology microscopic / kidney / nephropathy
[19] = systemic / pathology microscopic / kidney / nephropathy + systemic / pathology microscopic / blood / lymphoma nos
[20] = systemic / in life observation / body weight / body weight + systemic / in life observation / water consumption / water consumption + …
[21] = systemic / in life observation / water consumption / water consumption
[22] = systemic / in life observation / body weight / body weight + systemic / in life observation / body weight / body weight gain + systemic / in…
[23] = systemic / in life observation / body weight / body weight + systemic / pathology microscopic / liver / hyperplasia + systemic / pathology …
[24] = group: developmental, systemic / in life observation / body weight / fetal weight
[25] = group: maternal, systemic / in life observation / body weight / body weight gain + systemic / in life observation / food consumption / food consumption
[26] = group: developmental, developmental / developmental malformation / bone / incomplete ossification + systemic / in life observation / body weight / fetal weight
[27] = group: maternal, systemic / in life observation / body weight / body weight + systemic / in life observation / body weight / body weight gain + systemic / in…
[28] = systemic / clinical chemistry / triglycerides / triglycerides + systemic / in life observation / body weight / body weight gain + systemic…
[29] = systemic / in life observation / body weight / body weight gain + systemic / in life observation / clinical signs / [other] + systemic / in …
[30] = systemic / in life observation / clinical signs / emesis + systemic / in life observation / clinical signs / salivation
[31] = systemic / clinical chemistry / alanine aminotransferase (alt/sgpt) / alanine aminotransferase (alt/sgpt) + systemic / clinical chemistry / …
[32] = systemic / in life observation / clinical signs / abnormal feces + systemic / in life observation / clinical signs / body surface staining…
[33] = systemic / in life observation / body weight / body weight gain + systemic / in life observation / clinical signs / abnormal respiratory …
[34] = systemic / in life observation / body weight / body weight gain + systemic / in life observation / clinical signs / anogenital staining + …
[35] = systemic / in life observation / body weight / body weight gain + systemic / in life observation / clinical signs / red or crusty deposits …

Which results are given for Cl.Cl.Nc1ccc(Cc2ccc(N)cc2)cc1 [4,4'-Methylenedianiline dihydrochloride]?
LOAEL (mouse [1]; systemic / in life observation / body weight / body weight gain + systemic / in life observation / water consumption / water consumption): 120 mg/kg/day; LEL (mouse [1]; [17]): 120 mg/kg/day; NEL (mouse [1]; [17]): 60 mg/kg/day; NOAEL (mouse [1]; [17]): 60 mg/kg/day; LOAEL (mouse [2]; [18]): 19 mg/kg/day; NOAEL (mouse [2]; [18]): < 19 mg/kg/day; LEL (mouse [2]; [19]): 19 mg/kg/day; NEL (mouse [2]; [19]): < 19 mg/kg/day; LOAEL (rat [3]; [20]): 20 mg/kg/day; NEL (rat [3]; [20]): 5 mg/kg/day; NOAEL (rat [3]; [20]): 10 mg/kg/day; LEL (rat [3]; [21]): 10 mg/kg/day; LOAEL (rat [4]; [22]): 40 mg/kg/day; NOAEL (rat [4]; [22]): 20 mg/kg/day; LEL (rat [4]; [21]): 10 mg/kg/day; NEL (rat [4]; [21]): < 10 mg/kg/day; LOAEL (mouse [5]; [23]): 60 mg/kg/day; NOAEL (mouse [5]; [23]): 30 mg/kg/day; LEL (mouse [5]; [21]): 3.75 mg/kg/day; NEL (mouse [5]; [21]): < 3.75 mg/kg/day; LEL (rat [6]): 9 mg/kg/day; LOAEL (rat [6]): 9 mg/kg/day; NEL (rat [6]): < 9 mg/kg/day; NOAEL (rat [6]): < 9 mg/kg/day

With CN1CCN(Cc2cc(-c3ccc4[nH]c(=O)oc4c3)co2)[C@@H](c2ccc(F)cc2)C1.Cl.O [AVE8488] as the compound, how does the LEL (rabbit [7]; [24]) read?
The LEL was 100 mg/kg/day.

And the LOAEL (rabbit [7]; [24])?
The LOAEL was 100 mg/kg/day.

What about the NEL (rabbit [7]; [24]) of the same compound?
Its NEL is 50 mg/kg/day.

And the NOAEL (rabbit [7]; [24])?
Its NOAEL is 50 mg/kg/day.

And the LEL (rabbit [7]; [25])?
Its LEL is 100 mg/kg/day.

And the LOAEL (rabbit [7]; [25])?
The LOAEL was 100 mg/kg/day.

What about the NEL (rabbit [7]; [25]) of the same compound?
The NEL was 50 mg/kg/day.

What about the NOAEL (rabbit [7]; [25]) of the same compound?
The NOAEL was 50 mg/kg/day.

What about the LEL (dog [8]) of the same compound?
Its LEL is 20 mg/kg/day.

And the LOAEL (dog [8])?
The LOAEL was 20 mg/kg/day.

And the NEL (dog [8])?
Its NEL is 5 mg/kg/day.

And the NOAEL (dog [8])?
Its NOAEL is 5 mg/kg/day.

And the LEL (rat [9])?
Its LEL is 10 mg/kg/day.

What about the LOAEL (rat [9]) of the same compound?
The LOAEL was 10 mg/kg/day.

What about the NEL (rat [9]) of the same compound?
The NEL was 1 mg/kg/day.

What about the NOAEL (rat [9]) of the same compound?
Its NOAEL is 1 mg/kg/day.

What about the LEL (rabbit [10]; [26]) of the same compound?
The LEL was 150 mg/kg/day.

What about the LOAEL (rabbit [10]; [26]) of the same compound?
Its LOAEL is 150 mg/kg/day.

And the NEL (rabbit [10]; [26])?
Its NEL is 50 mg/kg/day.

What about the NOAEL (rabbit [10]; [26]) of the same compound?
The NOAEL was 50 mg/kg/day.

And the LEL (rabbit [10]; [27])?
Its LEL is 150 mg/kg/day.

What about the LOAEL (rabbit [10]; [27]) of the same compound?
Its LOAEL is 150 mg/kg/day.

And the NEL (rabbit [10]; [27])?
Its NEL is 50 mg/kg/day.

And the NOAEL (rabbit [10]; [27])?
Its NOAEL is 50 mg/kg/day.

And the LOAEL (rat [11]; [28])?
Its LOAEL is 7 mg/kg/day.

What about the NOAEL (rat [11]; [28]) of the same compound?
The NOAEL was 1 mg/kg/day.

And the LEL (rat [11]; [29])?
Its LEL is 1 mg/kg/day.

And the NEL (rat [11]; [29])?
The NEL was < 1 mg/kg/day.

And the NOAEL (dog [12]; systemic / in life observation / clinical signs / emesis + systemic / clinical chemistry / albumin / albumin + systemic / clinical chemistry…)?
Its NOAEL is 5 mg/kg/day.

And the LEL (dog [12]; [30])?
The LEL was 1 mg/kg/day.

What about the NEL (dog [12]; [30]) of the same compound?
Its NEL is < 1 mg/kg/day.

And the LOAEL (dog [12]; systemic / in life observation / clinical signs / emesis + systemic / in life observation / clinical signs / salivation + systemic / …)?
The LOAEL was 20 mg/kg/day.

What about the LOAEL (mouse [13]; [31]) of the same compound?
The LOAEL was > 2000 mg/kg/day.

What about the NOAEL (mouse [13]; [31]) of the same compound?
Its NOAEL is ≥ 2000 mg/kg/day.

And the LEL (mouse [13]; [32])?
The LEL was 50 mg/kg/day.

And the NEL (mouse [13]; [32])?
Its NEL is < 50 mg/kg/day.

And the LEL (rat [14])?
The LEL was 3.7 mg/kg/day.

And the LOAEL (rat [14])?
Its LOAEL is 25 mg/kg/day.

And the NEL (rat [14])?
The NEL was 0.79 mg/kg/day.

What about the NOAEL (rat [14]) of the same compound?
Its NOAEL is 3.7 mg/kg/day.

What about the LEL (rat [15]; systemic / clinical chemistry / triglycerides / triglycerides + systemic / in life observation / body weight / body weight gain) of the same compound?
Its LEL is 5 mg/kg/day.

And the NEL (rat [15]; [28])?
The NEL was 0.25 mg/kg/day.

And the LOAEL (rat [15]; [33])?
The LOAEL was 50 mg/kg/day.

And the NOAEL (rat [15]; [33])?
Its NOAEL is 5 mg/kg/day.

What about the LOAEL (rat [16]; [34]) of the same compound?
The LOAEL was > 150 mg/kg/day.

What about the NOAEL (rat [16]; [34]) of the same compound?
Its NOAEL is ≥ 150 mg/kg/day.

And the LEL (rat [16]; [35])?
Its LEL is 1 mg/kg/day.

And the NEL (rat [16]; [35])?
The NEL was < 1 mg/kg/day.
